The values that follow come from paper PMC8259865, “Design and green synthesis of novel quinolinone derivatives of potential anti-breast cancer activity against MCF-7 cell line targeting multi-receptor tyrosine kinases” (Journal of Enzyme Inhibition and Medicinal Chemistry, 2021).

Entries after “also recorded” stand apart in the source; their conditions may differ.

For assay [1], the system named is human breast cancer MCF-7 cell line. Kind of assay: MTT cytotoxicity assay against MCF-7 breast cancer cells. In kind it is cell-based. Conditions: for IC50: Homo sapiens, MCF7, MTT assay, MCF-7 cells, average of at least three independent experiments, read-out: Anticancer activity against MCF-7 cells IC50 mean ± SD. The text has this:
MTT assay was used to evaluate the in vitro cytotoxicity of the new compounds against breast cancer cell lines MCF-7[38]. More details are present in the Supplementary file.
S1: In vitro cytotoxicity experiment
MTT assay was used to evaluate the in vitro cytotoxicity of the new compounds against breast cancer cell lines MCF-7 [39]. MTT assay depends on the reduction of the soluble 3-(4,5-methyl-2-thiazolyl)-2,5-diphenyl-2H-tetrazolium bromide (MTT) into a blue purple formazan product, mainly by mitochondrial reductase activity inside the living cells. The cells used in cytotoxicity […]
at 37 °C in a 5% CO 2 incubator. After 12 h, the test sampl e (2 μL) was added to the cells (2 × 10 4) in 96-well plates and cultured at 37 ◦C for 3 days. The cultured cells were mixed with 20 μL of MTT solution and incubated for 4 h at 37 °C. The supernatant was carefully removed from each well and 100 μL of DMSO we re added to each well to dissolve the formazan crystals which were formed by the cellular reduction of MTT. […]
For orientation: Tetrazolium dyes change colour on reduction, which living cells bring about.

The target in assay [2] is EGFR (Homo sapiens, UniProt P00533). Briefly: In vitro kinase inhibition assay, EGFR (Abcam Human In cell ELISA Kit). (In general: An ELISA detects its analyte on a solid surface through an enzyme-linked reagent.)
EGFR, sequence (P00533 25-1210): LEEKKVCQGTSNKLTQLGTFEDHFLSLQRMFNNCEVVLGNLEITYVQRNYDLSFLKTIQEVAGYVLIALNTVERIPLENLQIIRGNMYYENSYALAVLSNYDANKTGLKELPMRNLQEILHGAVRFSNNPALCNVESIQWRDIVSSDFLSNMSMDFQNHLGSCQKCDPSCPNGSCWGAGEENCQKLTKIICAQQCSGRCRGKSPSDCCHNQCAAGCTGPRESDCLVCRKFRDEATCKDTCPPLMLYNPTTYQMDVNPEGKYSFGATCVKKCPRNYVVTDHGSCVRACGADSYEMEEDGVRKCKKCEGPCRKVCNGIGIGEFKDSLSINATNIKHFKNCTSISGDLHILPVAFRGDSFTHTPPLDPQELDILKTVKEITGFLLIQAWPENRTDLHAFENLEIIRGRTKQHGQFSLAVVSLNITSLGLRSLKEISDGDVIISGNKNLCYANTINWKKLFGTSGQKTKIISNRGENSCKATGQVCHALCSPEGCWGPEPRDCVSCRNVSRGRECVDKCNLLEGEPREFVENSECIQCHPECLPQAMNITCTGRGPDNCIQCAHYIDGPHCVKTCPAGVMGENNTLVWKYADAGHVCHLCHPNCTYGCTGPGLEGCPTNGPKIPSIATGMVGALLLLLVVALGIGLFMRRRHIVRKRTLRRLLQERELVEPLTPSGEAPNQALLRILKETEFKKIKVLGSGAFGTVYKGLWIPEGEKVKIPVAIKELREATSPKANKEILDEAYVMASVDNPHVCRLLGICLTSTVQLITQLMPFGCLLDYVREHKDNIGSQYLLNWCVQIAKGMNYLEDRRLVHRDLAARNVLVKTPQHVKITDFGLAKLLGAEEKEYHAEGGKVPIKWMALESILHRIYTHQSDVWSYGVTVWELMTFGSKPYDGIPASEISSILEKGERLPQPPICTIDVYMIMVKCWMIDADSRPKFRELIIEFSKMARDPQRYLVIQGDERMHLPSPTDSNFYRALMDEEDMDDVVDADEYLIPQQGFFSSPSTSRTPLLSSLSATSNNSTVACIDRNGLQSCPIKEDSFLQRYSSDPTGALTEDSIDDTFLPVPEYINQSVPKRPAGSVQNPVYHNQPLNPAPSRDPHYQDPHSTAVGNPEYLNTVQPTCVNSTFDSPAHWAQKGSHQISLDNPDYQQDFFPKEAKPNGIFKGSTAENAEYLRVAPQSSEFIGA
Text: (§2) The procedure of the used kits was done according to the manufacturer, s instructions.
(§3) Which are: EGFR, human epidermal growth factor receptor (HER2), PDGFR-α, and VEGFR-2.
For assay [3], the system named is MCF-7 cells. Briefly: Annexin-V/PI apoptosis assay by flow cytometry. Conditions: compound at its IC50 concentration, 24 h. In kind it is cell-based, human. On the procedure:
(§1) Cell cycle analysis and apoptosis investigation were carried out by flow cytometry.[39]^,[40] […] After treatment with the tested compound, for 24 h, cell pellets were collected and centrifuged (300 g, 5 min).
Flow cytometry method[39]^,[49] has been used to detect the corresponding red (PI) and green (FITC) fluorescence. It has been noted that there was an increment in the percentages of the late apoptosis produced by the evaluated compounds 4b and 4j from 0.13% (control DMSO/MCF-7 cells) to 13.81% and 22.03%, respectively. Also, the tested compounds produced early apoptotic effects of 6.15% and 3.27% compared to 0.58% of the untreated MCF-7 cell with necrosis percent of 4.37% and 9.22%, respectively, vs. 0.66% produced by the DMSO control (Figures 4 and 5).
On the technique in general: In flow cytometry, cells or beads pass a laser one at a time.

Assay [4] deals with VEGFR-2 (Homo sapiens, UniProt P35968). Kind of assay: In vitro kinase inhibition assay, VEGFR-2 (KDR Kinase Assay Kit).
VEGFR-2, sequence (P35968 20-1356): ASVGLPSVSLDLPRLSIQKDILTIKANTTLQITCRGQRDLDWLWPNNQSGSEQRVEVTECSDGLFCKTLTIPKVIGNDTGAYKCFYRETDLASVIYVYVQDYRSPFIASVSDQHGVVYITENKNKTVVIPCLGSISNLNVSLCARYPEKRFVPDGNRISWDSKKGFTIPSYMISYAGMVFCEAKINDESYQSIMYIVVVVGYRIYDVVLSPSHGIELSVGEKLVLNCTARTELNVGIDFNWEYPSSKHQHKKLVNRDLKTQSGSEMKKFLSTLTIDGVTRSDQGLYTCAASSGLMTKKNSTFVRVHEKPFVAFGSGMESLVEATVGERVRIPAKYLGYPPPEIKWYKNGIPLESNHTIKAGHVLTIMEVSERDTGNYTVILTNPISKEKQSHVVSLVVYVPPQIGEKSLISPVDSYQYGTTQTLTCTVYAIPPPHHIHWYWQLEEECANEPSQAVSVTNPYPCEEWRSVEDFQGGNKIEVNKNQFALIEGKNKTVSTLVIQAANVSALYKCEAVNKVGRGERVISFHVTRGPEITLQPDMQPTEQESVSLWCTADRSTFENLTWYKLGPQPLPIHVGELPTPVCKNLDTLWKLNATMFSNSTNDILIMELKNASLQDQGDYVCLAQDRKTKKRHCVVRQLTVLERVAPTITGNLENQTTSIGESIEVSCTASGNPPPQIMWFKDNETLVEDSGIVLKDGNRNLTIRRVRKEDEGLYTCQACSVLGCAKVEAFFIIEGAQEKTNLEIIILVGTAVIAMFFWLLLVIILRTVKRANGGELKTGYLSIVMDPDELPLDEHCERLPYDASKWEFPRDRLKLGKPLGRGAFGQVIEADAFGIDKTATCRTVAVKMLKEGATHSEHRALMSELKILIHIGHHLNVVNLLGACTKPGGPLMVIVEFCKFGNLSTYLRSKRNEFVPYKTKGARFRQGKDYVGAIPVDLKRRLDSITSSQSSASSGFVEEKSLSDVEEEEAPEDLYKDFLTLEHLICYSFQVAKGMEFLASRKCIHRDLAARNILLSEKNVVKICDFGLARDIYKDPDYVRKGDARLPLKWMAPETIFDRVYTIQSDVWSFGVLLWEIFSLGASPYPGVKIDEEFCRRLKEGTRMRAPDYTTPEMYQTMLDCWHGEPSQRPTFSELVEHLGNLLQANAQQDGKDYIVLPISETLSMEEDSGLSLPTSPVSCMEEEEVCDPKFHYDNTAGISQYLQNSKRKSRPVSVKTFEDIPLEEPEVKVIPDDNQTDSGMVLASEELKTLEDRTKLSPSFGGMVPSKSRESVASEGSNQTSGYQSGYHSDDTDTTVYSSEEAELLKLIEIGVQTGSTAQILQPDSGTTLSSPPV
Text: as §2, §3
The subject of assay [5] is MCF-7 cells. Kind of assay: Cell cycle analysis by flow cytometry. The assay is classed as cell-based, human. Conditions: for %G0–G1 / %G2/M / %Pre-G1 / %S: compound at its IC50 concentration, 24 h. On the procedure: as §1
The induction of apoptosis is one of the most crucial tools that confirm the effectiveness of cancer therapy. Cell cycle checkpoints are G1 (restriction or start), S ([…]), and G2/M. One of the main functions of the anticancer therapeutics is stoppage of the cell division at these checkpoints.[51] […] The cells were stained with Annexin V/PI and examined using flow cytometry procedure.

In assay [6] the test system is normal WI38 cells. Kind of assay: MTT assay against normal WI38 cells (safety profile). The assay is classed as cell-based, human. Conditions: for IC50: Homo sapiens, WI-38, MTT assay, normal WI38 cells derived from lung tissues, read-out: IC50 against the normal WI38 cells mean ± SD; for IC50 against WI38 cells, fold higher than IC50 of staurosporine: relative to staurosporine; for IC50 against WI38 cells, fold higher than IC50 against cancer (MCF-7) cells: WI38 vs MCF-7. The source says:
One of the characteristics differentiating different anticancer agents from each other is the recurrence and severity of their side effects to the normal cells at their therapeutic doses. […].

In assay [7] the target is HER-2 (Homo sapiens, UniProt P04626). Kind of assay: In vitro kinase inhibition assay, HER-2 (ADP-Glo Kinase Assay).
HER-2, sequence (P04626 23-1255): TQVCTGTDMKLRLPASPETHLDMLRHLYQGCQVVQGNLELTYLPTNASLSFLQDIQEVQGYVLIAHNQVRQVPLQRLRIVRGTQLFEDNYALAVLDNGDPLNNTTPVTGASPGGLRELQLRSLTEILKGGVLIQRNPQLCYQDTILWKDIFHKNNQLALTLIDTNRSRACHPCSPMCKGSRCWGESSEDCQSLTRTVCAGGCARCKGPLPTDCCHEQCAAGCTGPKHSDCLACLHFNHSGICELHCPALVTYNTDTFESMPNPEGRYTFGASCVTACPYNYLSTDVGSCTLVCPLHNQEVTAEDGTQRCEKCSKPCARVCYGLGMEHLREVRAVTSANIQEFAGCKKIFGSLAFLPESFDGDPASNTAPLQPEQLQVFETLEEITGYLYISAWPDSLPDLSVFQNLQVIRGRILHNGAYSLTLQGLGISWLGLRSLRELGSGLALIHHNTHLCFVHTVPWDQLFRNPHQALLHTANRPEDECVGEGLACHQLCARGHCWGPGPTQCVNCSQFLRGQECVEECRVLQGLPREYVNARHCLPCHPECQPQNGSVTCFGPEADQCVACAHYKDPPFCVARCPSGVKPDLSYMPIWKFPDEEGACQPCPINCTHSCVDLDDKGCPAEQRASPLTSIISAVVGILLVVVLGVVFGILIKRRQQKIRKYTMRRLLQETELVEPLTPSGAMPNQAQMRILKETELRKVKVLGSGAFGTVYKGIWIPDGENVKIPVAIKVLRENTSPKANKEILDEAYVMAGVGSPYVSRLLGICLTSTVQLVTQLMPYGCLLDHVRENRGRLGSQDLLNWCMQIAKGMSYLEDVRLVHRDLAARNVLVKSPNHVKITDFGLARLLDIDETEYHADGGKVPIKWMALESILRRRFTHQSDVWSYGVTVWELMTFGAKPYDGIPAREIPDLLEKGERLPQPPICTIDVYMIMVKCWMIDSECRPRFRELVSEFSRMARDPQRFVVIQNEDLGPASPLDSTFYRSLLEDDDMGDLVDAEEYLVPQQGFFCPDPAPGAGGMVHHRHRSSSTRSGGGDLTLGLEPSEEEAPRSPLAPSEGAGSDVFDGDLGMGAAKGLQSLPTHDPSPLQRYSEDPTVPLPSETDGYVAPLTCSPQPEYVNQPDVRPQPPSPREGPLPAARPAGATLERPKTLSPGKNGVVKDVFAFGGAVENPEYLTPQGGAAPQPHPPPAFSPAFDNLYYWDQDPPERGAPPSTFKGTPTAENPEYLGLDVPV
Text: as §2, §3
Assay [8] concerns the target PDGFR-α. Briefly: In vitro kinase inhibition assay, PDGFR-α. Conditions: for IC50: read-out: PDGFR-α IC50.
Text: as §2, §3

Consider `COC(=O)C1=C(C)NC2=C(C(=O)CC(C)(C)C2)C1c1ccc(S(=O)(=O)c2ccccc2)cc1` (stereo not drawn) [Compound 4a, Methyl 2,7,7-trimethyl-5-oxo-4–(4-(phenylsulfonyl)phenyl)-1,4,5,6,7,8-hexahydroquinoline-3-carboxylate], for which the IC50 – broadly, the midpoint of a concentration-inhibition curve – in assay [1] stood at 103 ± 13 nM.
In assay [2], `CCOC(=O)C1=C(C(F)(F)F)NC2=C(C(=O)CC(C)(C)C2)C1c1ccc(S(=O)(=O)c2ccccc2)cc1` (stereo not drawn) [Compound 4b, Ethyl 7,7-dimethyl-5-oxo-4–(4-(phenylsulfonyl)phenyl)-2-(trifluoromethyl)-1,4,5,6,7,8-hexahydroquinoline-3-carboxylate] yielded an IC50 of 0.11 ± 0.03 nM. Further, in assay [3], the early apoptotic effect was found to be 6.15%, the late apoptosis percentage was 13.81% and the necrosis percent turned out to be 4.37%. Further, in assay [4], the IC50 came out at 1.05 ± 0.02 nM and the “VEGFR-2 inhibitory effect, fold less than Sorafenib” value was “about 6.2 fold”. Besides, in assay [1], the IC50 is 2 ± 1 nM. Also, the “fold more potent than staurosporine against MCF-7” value in assay [1] (ratio of IC50 values, MCF-7) was “about 2.5 fold”. For the same molecule, in assay [5], the “%G0–G1” value was 45.26%, the “%G2/M” value amounted to 18.03%, the “%Pre-G1” value is 24.33% and the “%S” value turned out to be 36.71%. For the same molecule, in assay [6], the IC50 was found to be 45 ± 13 nM; the “IC50 against WI38 cells, fold higher than IC50 of staurosporine” value is recorded as “about 3 fold”; the “IC50 against WI38 cells, fold higher than IC50 against cancer (MCF-7) cells” value is recorded as 24 fold. The molecule also gave an IC50 in assay [7] of 0.3 ± 0.05 nM. In addition, in assay [8], the IC50 amounted to 0.21 ± 0.04 nM.
With `CCOC(=O)C1=C(N)NC2=C(C(=O)CC(C)(C)C2)C1c1ccc(S(=O)(=O)c2ccccc2)cc1` (stereo not drawn) [Compound 4c, Ethyl 2-amino-7,7-dimethyl-5-oxo-4–(4-(phenylsulfonyl)phenyl)-1,4,5,6,7,8-hexahydroquinoline-3-carboxylate], the IC50 in assay [1] was 15 ± 2 nM.
Regarding `CC1(C)CC(=O)C2=C(C1)NC(N)=C(C(=O)c1ccccc1)C2c1ccc(S(=O)(=O)c2ccccc2)cc1` (stereo not drawn) [Compound 4d, 2-Amino-3-benzoyl-7,7-dimethyl-4–(4-(phenylsulfonyl)phenyl)-4,6,7,8-tetrahydroquinolin-5(1H)-one], the IC50 in assay [1] is 7 ± 1 nM. In addition, the “fold less potent than staurosporine against MCF-7” value in assay [1] (ratio of IC50 values, MCF-7) worked out at 1.4 fold.
`Cc1ccc(C(=O)C2=C(N)NC3=C(C(=O)CC(C)(C)C3)C2c2ccc(S(=O)(=O)c3ccccc3)cc2)cc1` (stereo not drawn) [Compound 4e, 2-Amino-7,7-dimethyl-3–(4-methylbenzoyl)-4–(4-(phenylsulfonyl)phenyl)-4,6,7,8-tetrahydroquinolin-5(1H)-one]: in assay [1], the IC50 came to 4 ± 2 nM. Moreover, in assay [6], the IC50 came out at 14.9 ± 3 nM; the “IC50 against WI38 cells, fold higher than IC50 of staurosporine” value is “approximately equal”; the “IC50 against WI38 cells, fold higher than IC50 against cancer (MCF-7) cells” value worked out at 4 fold.
Take `CC1(C)CC(=O)C2=C(C1)NC(N)=C(C(=O)c1ccc(Br)cc1)C2c1ccc(S(=O)(=O)c2ccccc2)cc1` (stereo not drawn) [Compound 4f, 2-Amino-3–(4-bromobenzoyl)-7,7-dimethyl-4–(4-(phenylsulfonyl)phenyl)-4,6,7,8-tetrahydroquinolin-5(1H)-one]: the IC50 in assay [1] turned out to be 27 ± 14 nM.
As to `COC(=O)C1=C(C)NC2=C(C(=O)CC(C)(C)C2)C1c1ccc(S(=O)(=O)c2ccc(C)cc2)cc1` (stereo not drawn) [Compound 4g, Methyl 2,7,7-trimethyl-5-oxo-4–(4-tosylphenyl)-1,4,5,6,7,8-hexahydroquinoline-3-carboxylate], the IC50 in assay [1] turned out to be 27 ± 3 nM.
For the molecule `CCOC(=O)C1=C(C(F)(F)F)NC2=C(C(=O)CC(C)(C)C2)C1c1ccc(S(=O)(=O)c2ccc(C)cc2)cc1` (stereo not drawn) [Compound 4h, Ethyl 7,7-dimethyl-5-oxo-4–(4-tosylphenyl)-2-(trifluoromethyl)-1,4,5,6,7,8-hexahydroquinoline-3-carboxylate], in assay [1], the IC50 came out at 41 ± 6 nM.
The same measure, in the same setting: the same measure for `CCOC(=O)C1=C(N)NC2=C(C(=O)CC(C)(C)C2)C1c1ccc(S(=O)(=O)c2ccc(C)cc2)cc1` (stereo not drawn) [Compound 4i, Ethyl 2-amino-7,7-dimethyl-5-oxo-4–(4-tosylphenyl)-1,4,5,6,7,8-hexahydroquinoline-3-carboxylate]: 23 ± 3 nM.
In turn, `Cc1ccc(S(=O)(=O)c2ccc(C3C(C(=O)c4ccccc4)=C(N)NC4=C3C(=O)CC(C)(C)C4)cc2)cc1` (stereo not drawn) [Compound 4j, 2-Amino-3-benzoyl-7,7-dimethyl-4–(4-tosylphenyl)-4,6,7,8-tetrahydroquinolin-5(1H)-one] returned an IC50 in assay [2] of 0.07 ± 0.02 nM. In assay [3], the early apoptotic effect was found to be 3.27%, the late apoptosis percentage turned out to be 22.03% and the necrosis percent was 9.22%. In assay [4], the IC50 was 0.3 ± 0.06 nM and the “VEGFR-2 inhibitory effect, fold less than Sorafenib” value was approximately 1.8 fold. For the same molecule, the IC50 in assay [1] was determined as 3 ± 5 nM. In assay [5], the “cell cycle effect in MCF-7 cells” value is reported as “cell cycle disruption at G2/M phase; also recorded: cell cycle arrest at G2/M phase”, the “%G0–G1” value turned out to be 36.99%, the “%G2/M” value is reported as 31.17% and the “%Pre-G1” value came to 34.52%. The “%S” value in assay [5] was determined as 31.84%. In assay [6], the IC50 worked out at 48 ± 8 nM and the “IC50 against WI38 cells, fold higher than IC50 of staurosporine” value is on record as “about 3 fold”. Besides, in assay [7], the “HER-2 inhibition, folds more potent than Sorafenib” value is given as “about 1.6 fold” and the IC50 was determined as 0.17 ± 0.02 nM. In addition, in assay [8], the “PDGFR-α inhibition, fold more than sorafenib” value came out at 1.9 fold and the IC50 was 0.07 ± 0.01 nM.
Consider `Cc1ccc(C(=O)C2=C(N)NC3=C(C(=O)CC(C)(C)C3)C2c2ccc(S(=O)(=O)c3ccc(C)cc3)cc2)cc1` (stereo not drawn) [Compound 4k, 2-Amino-7,7-dimethyl-3–(4-methylbenzoyl)-4–(4-tosylphenyl)-4,6,7,8-tetrahydroquinolin-5(1H)-one], for which the IC50 in assay [1] was 4 ± 1 nM. In assay [6], the IC50 was 17.6 ± 9 nM; the “IC50 against WI38 cells, fold higher than IC50 of staurosporine” value is “approximately equal”; the “IC50 against WI38 cells, fold higher than IC50 against cancer (MCF-7) cells” value worked out at 4 fold.
`Cc1ccc(S(=O)(=O)c2ccc(C3C(C(=O)c4ccc(Br)cc4)=C(N)NC4=C3C(=O)CC(C)(C)C4)cc2)cc1` (stereo not drawn) [Compound 4l, 2-Amino-3–(4-bromobenzoyl)-7,7-dimethyl-4–(4-tosylphenyl)-4,6,7,8-tetrahydroquinolin-5(1H)-one]: the IC50 in assay [1] came to 7 ± 1 nM. In addition, in assay [1] (ratio of IC50 values, MCF-7), the “fold less potent than staurosporine against MCF-7” value stood at 1.4 fold.
For `CN[C@@H]1C[C@H]2O[C@@](C)([C@@H]1OC)n1c3ccccc3c3c4c(c5c6ccccc6n2c5c31)C(=O)NC4` [Staurosporine, reference compound], the IC50 in assay [6] amounted to 13 ± 2 nM.
